Values joined by “and” are separate entries in the source; they are usually repeats but may differ in a detail not shown here. Identical values can stand only once. Like-named read-outs stand apart in the source and are kept apart here.
Key:
[1] = Liver Microsome Stability Assay (monkey); details: monkey liver microsomes, with NADPH, 1.0 uM compound
Description: (§4) Stability of a compound was assessed in the presence of liver microsomes from various sources—mouse, rat, monkey and human liver microsomes. 1.0 uM compound, 0.4% DMSO in 0.1 M Potassium Phosphate with 1.0 mg/mL liver microsomes, were incubated at 37° C. with or without 1 mM NADPH. The samples were quenched at 0, and 30 minutes.

[2] = Liver Microsome Stability Assay (mouse); details: mouse liver microsomes, with NADPH, 1.0 uM compound
Description: as §4

[3] = tested on: PD1-ss+10aa/Gaussia Luciferase; test: Dox-Induced PD1-ss-Gluc Assay; format: cell-based; details: 24 hr Dox induction, 293FRT/TO cells, read-out: 24 hr Dox Inducible PD1ssGluc 293FRT/TO: Mean IC50
Method in brief: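 Stable Flp-In 293 T-REx cells carried a doxycycline-inducible construct of Gaussia luciferase fused to the PD1 signal sequence plus 10 amino acids. Cells were plated the day before, then treated with compound dilutions in DMSO/media containing doxycycline at 37 °C, 5% CO2.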

[4] = Liver Microsome Stability Assay (rat); details: rat liver microsomes, with NADPH, 1.0 uM compound
Description: as §4

[5] = tested on: IL-2-FL/Gaussia Luciferase; test: Dox Induced IL2-FL-Gluc Assay; format: cell-based; details: for IC50: 24 hr Dox induction, 293FRT/TO cells, read-out: 24 hr Dox Inducible IL2FLGluc 293FRT/TO: Mean IC50; for 24 hr Dox Inducible IL2FLGluc 293FRT/TO: IL2/PD1: ratio of IL2FLGluc IC50 to PD1ssGluc IC50
Method in brief: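 A hygromycin- and blasticidin-resistant 293 T-REx clone carrying inducible IL-2–Gaussia luciferase (full-length IL-2, residues 1-153) serves as the cell system. After overnight plating, the cells get test compounds together with doxycycline in DMSO/media and are incubated at 37° C, 5% CO2.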

[6] = tested on: multiple myeloma cell line U266B1; test: U266 Cell Viability Assay; format: cell-based, human; details: Homo sapiens, U-266, 48 h, U266B1 cells, Celltiter-Glo
Description: (§1) The human multiple myeloma cell line U266B1 was cultured in RPMI 1640 media supplemented with 10% fetal bovine serum, 2 mM Glutamine, and 1× Penicillin/Streptomycin. Cells were plated in 384-well tissue culture plates and treated with compound dilutions in DMSO/media. Plates were incubated at 37° C., 5% CO2 for 48 hours. After 48 hours, Celltiter-Glo® (Promega) was added to each well and luciferase signal was quantified using Tecan Infinite M1000 Pro for cell viability determination.
(§2) For chemical structures that include one or more stereoisomers, but are illustrated without indicating stereochemistry, the assay data refers to a mixture of stereoisomers.

[7] = tested on: multiple myeloma cell line NCI-H929; test: H929 Cell Viability Assay; format: cell-based, human; details: NCI-H929 cells, Celltiter-Glo
Description: as §1, with “NCI-H929” for “U266B1”, “cultured in Advanced RPMI 1640 media (Gibco®) supplemented with 6% fetal bovine serum, 2 mM Glutamine, and 1× Penicillin/Streptomycin. On the day of assay, cells were resuspended” for “cultured”, “Penicillin/Streptomycin and” for “Penicillin/Streptomycin. Cells were”
as §2

[8] = tested on: TNFα-FL/Gaussia Luciferase; test: Dox Induced TNFα-FL-Gluc Assay; format: cell-based; details: for IC50: 24 hr Dox induction, 293FRT/TO cells, read-out: 24 hr Dox Inducible TNFaFLGluc 293FRT/TO: Mean IC50; for 24 hr Dox Inducible TNFaFLGluc 293FRT/TO: TNF/PD1: ratio of TNFaFLGluc IC50 to PD1ssGluc IC50
From the text: (§3) Flp-In 293 T-REx™ cells were transfected with pcDNA™5/FRT/TO plasmid inserted with cDNA encoding Gaussia Luciferase fused to the 3′ end of cDNA encoding full length TNFα (amino acids 1-233). Transfected cells were selected for resistance to the selectable markers Hygromycin and Blasticidin to create a stable cell line that contained the TNFα-FL/Gaussia Luciferase cDNA insert whose expression was regulated under the T-REx™ system. The day before assay, cells were trypsinized and plated in 384-well tissue culture plates. The next day, compound dilutions in DMSO/media containing doxycycline were added to the wells and incubated at 37° C., 5% CO2.
as §2

[9] = Liver Microsome Stability Assay (human); details: human liver microsomes, with NADPH, 1.0 uM compound
Description: as §4

[10] = tested on: HER3-ss+4aa/Gaussia Luciferase; test: Dox-Induced Her3-ss-Gluc Assay; format: cell-based; details: 24 hr Dox induction, 293FRT/TO cells, read-out: 24 hr Dox Inducible Her3(ss + 4)Gluc 293FRT/TO: Mean IC50
From the text: as §3, with “HER3 signal sequence plus 4 amino” for “full length TNFα (amino”, “(N-[…]-C) (SEQ ID NO: 2).” for “1-233).”, “HER3-ss+4aa/Gaussia” for “TNFα-FL/Gaussia”
as §2

[11] = '<=>' given where both are I.A.

Compound	Liver Microsome Stability (Multiple Species): Monkey - % Remaining after 30 min w/NADPH [1]	Liver Microsome Stability (Multiple Species): Mouse - % Remaining after 30 min w/NADPH [2]	IC50 [3] [nM]	Liver Microsome Stability (Multiple Species): Rat - % Remaining after 30 min w/NADPH [4]	IC50 [5] [nM]	EC50 [6] [µM]	EC50 ([7]; Homo sapiens, NCI-H929, 48 h) [µM]	IC50 [8] [nM]	Liver Microsome Stability (Multiple Species): Human - % Remaining after 30 min w/NADPH [9]	IC50 [10] [nM]	IC50 ([3]; mean)	IC50 ([5]; mean)	EC50 ([7]; 48 hr) [µM]	IC50 ([8]; mean)	IC50 ([10]; mean)	24 hr Dox Inducible IL2FLGluc 293FRT/TO: IL2/PD1 [5]	24 hr Dox Inducible TNFaFLGluc 293FRT/TO: TNF/PD1 [8]	24 hr Dox Inducible IL2FLGluc 293FRT/TO: IL2/PD1 [5, 11]	24 hr Dox Inducible TNFaFLGluc 293FRT/TO: TNF/PD1 [8, 11]
O=C(Nc1nc([C@H]2CCCN2c2ccc(OC3CCOCC3)cc2)cs1)c1cccn1Cc1ccncc1 [Compound A1, (R)-1-(pyridin-4-ylmethyl)-N-(4-(1-(4-((tetrahydro-2H-pyran-4-yl)oxy)phenyl)pyrrolidin-2-yl)thiazol-2-yl)-1H-pyrrole-2-carboxamide]	6.47%	24.8%	26.9	50%	53.8	> 25	1.23	369	14.3%	58.4						2	13.7		
CS(=O)(=O)Nc1ccc(N2CCC[C@@H]2c2csc(NC(=O)c3cccn3Cc3ccnc(F)c3)n2)cc1 [Compound A118, (R)-1-((2-fluoropyridin-4-yl)methyl)-N-(4-(1-(4-(methylsulfonamido)phenyl)pyrrolidin-2-yl)thiazol-2-yl)-1H-pyrrole-2-carboxamide]			103		129	> 25	1.8	888		135						1.2	8.6		
CNC(=O)Nc1ccc(N2CCC[C@@H]2c2csc(NC(=O)c3cccn3Cc3ccnc(F)c3)n2)cc1 [Compound A119, (R)-1-((2-fluoropyridin-4-yl)methyl)-N-(4-(1-(4-(3-methylureido)phenyl)pyrrolidin-2-yl)thiazol-2-yl)-1H-pyrrole-2-carboxamide]			1.76		7.35	> 25	0.133	41.3		6.31						4.2	23.5		
CC(C)Oc1ccc(N2CCC[C@@H]2c2csc(NC(=O)c3cccn3Cc3ccnc(F)c3)n2)cc1 [Compound A120, (R)-1-((2-fluoropyridin-4-yl)methyl)-N-(4-(1-(4-isopropoxyphenyl)pyrrolidin-2-yl)thiazol-2-yl)-1H-pyrrole-2-carboxamide]			24.5		42.6	> 25	0.831	158		34.5						1.7	6.44		

Now from value to compound, other results behind:

Liver Microsome Stability (Multiple Species): Monkey - % Remaining after 30 min w/NADPH [1]	Liver Microsome Stability (Multiple Species): Mouse - % Remaining after 30 min w/NADPH [2]	IC50 [3] [nM]	Liver Microsome Stability (Multiple Species): Rat - % Remaining after 30 min w/NADPH [4]	IC50 [5] [nM]	EC50 [6] [µM]	EC50 ([7]; Homo sapiens, NCI-H929, 48 h) [µM]	IC50 [8] [nM]	Liver Microsome Stability (Multiple Species): Human - % Remaining after 30 min w/NADPH [9]	IC50 [10] [nM]	IC50 ([3]; mean)	IC50 ([5]; mean)	EC50 ([7]; 48 hr) [µM]	IC50 ([8]; mean)	IC50 ([10]; mean)	Compound	24 hr Dox Inducible IL2FLGluc 293FRT/TO: IL2/PD1 [5]	24 hr Dox Inducible TNFaFLGluc 293FRT/TO: TNF/PD1 [8]	24 hr Dox Inducible IL2FLGluc 293FRT/TO: IL2/PD1 [5, 11]	24 hr Dox Inducible TNFaFLGluc 293FRT/TO: TNF/PD1 [8, 11]
		418		> 25000	> 25	> 25	> 25000		> 25000						CCc1cccc2nc(/C=C/c3csc(NC(=O)c4cccn4Cc4ccnc(F)c4)n3)cn12 [Compound B78, (E)-N-(4-(2-(5-ethylimidazo[1,2-a]pyridin-2-yl)vinyl)thiazol-2-yl)-1-((2-fluoropyridin-4-yl)methyl)-1H-pyrrole-2-carboxamide]	>60	>59.8		
		416		4340	> 25	> 25	> 25000		3580						CCc1cccc2nc(/C=C/c3csc(NC(=O)c4cccn4Cc4ccncc4)n3)cn12 [Compound B79, (E)-N-(4-(2-(5-ethylimidazo[1,2-a]pyridin-2-yl)vinyl)thiazol-2-yl)-1-(pyridin-4-ylmethyl)-1H-pyrrole-2-carboxamide]	10	>60.1		
		372		5370	19	16.2	7270		3140						Cc1cn(C(C)C)nc1/C=C/c1csc(NC(=O)c2cccn2Cc2ccncc2)n1 [Compound B80, (E)-N-(4-(2-(1-isopropyl-4-methyl-1H-pyrazol-3-yl)vinyl)thiazol-2-yl)-1-(pyridin-4-ylmethyl)-1H-pyrrole-2-carboxamide]	14	19.5		
5.77% and 6.74%	50.1% and 71.4%	905		2170	19.1	6.85	1670	10.6% and 16.9%	2020						Cc1cnn(C(C)C)c1/C=C/c1csc(NC(=O)c2cccn2Cc2ccnc(F)c2)n1 [Compound B84, (E)-1-((2-fluoropyridin-4-yl)methyl)-N-(4-(2-(1-isopropyl-4-methyl-1H-pyrazol-5-yl)vinyl)thiazol-2-yl)-1H-pyrrole-2-carboxamide]	2.4	1.84		
2.55% and 1.11%			3.87% and 7.05%		> 25	> 23.8		8.71% and 7.07%		2400 nM and 1590 nM	4510 nM and 3480 nM	20.3	> 25000 nM and 17900 nM	2410 nM and 2480 nM	CO[C@H](CC#N)Cn1cccc1C(=O)Nc1nc([C@H]2CCCN2c2ccccc2)cs1 [Compound C108, 1-((R)-3-cyano-2-methoxypropyl)-N-(4-((R)-1-phenylpyrrolidin-2-yl)thiazol-2-yl)-1H-pyrrole-2-carboxamide]			1.9 and 2.2	> 10.4 and 11.3

Reference: US20230286973A1, “PROTEIN SECRETION INHIBITORS” (KEZAR LIFE SCIENCES, priority 2020, published 2023)
